Assay results published in paper PMC9031611 (Journal of Clinical Medicine, 2022).
Like-named read-outs stand apart in the source and are kept apart here. Blank lines part the entries; values can stand above or below the compound they belong to.

Tests used:
[1] = Pharmacokinetics assessments in phase I patients (plasma, steady state); conditions: for Tmax,ss: median (range); for AUC: AUC0→τ,ss
Method: This was a dual-agent, open-label, phase I study. […] We conducted the trial following the 3 + 3 dose-escalation phase I clinical trial design. […] There were three cohorts and at least […] were enrolled for each dose level. No intra-patient dose escalation was allowed, and each patient’s first dose was at least 5 days apart from the next patient’s first dose. DLTs were assessed during the initial 8-week and 4-week treatment periods for Cohort 1 and Cohorts 2/3, respectively. The criteria for DLTs are listed in Supplementary Table S1. […] The enrolled patients were treated until disease progression.
A plasma concentration–time profile for MG005 as a single agent was established, and PK parameters in terms of the following were also determined: peak plasma concentration (Cmax)/at steady state (Cmax,ss); time to reach peak concentration (Tmax)/at steady state (Tmax,ss); AUC in 1 dosing interval at steady state (AUC0→τ,ss).

[2] = Solubility of MG005 and MG010; format: physicochemical; conditions: in words
[3] = design: method as in PMID 26100670; conditions: in vitro and in vivo studies; cited from earlier work
[4] = cited from earlier work
[5] = cited from earlier work; remark: listed apart in the source
[6] = Day 28, Cohort 2: 1500 mg QD MG005 plus 200 mg QD sorafenib
[7] = Day 28, Cohort 1: 750 mg QD MG005 plus 200 mg QD sorafenib, mean ± SD
[8] = Day 28, Cohort 2: 1500 mg QD MG005 plus 200 mg QD sorafenib, mean ± SD
[9] = Day 28, Cohort 3: 750 mg BID MG005 plus 200 mg QD sorafenib, mean ± SD

Tmax,ss [1, 6]: 8.0 (2.1–23.5) Hr | AUC ([1]; human, plasma, oral, Day 28, Cohort 1: 750 mg QD MG005 plus 200 mg QD sorafenib, mean ± SD): 88600 ng·h/mL | AUC ([1]; human, plasma, oral, Day 28, Cohort 2: 1500 mg QD MG005 plus 200 mg QD sorafenib, mean ± SD): 51400 ng·h/mL | AUC ([1]; human, plasma, oral, Day 28, Cohort 3: 750 mg BID MG005 plus 200 mg QD sorafenib, mean ± SD): 30600 ng·h/mL | Cmax ([1]; human, plasma, oral, Cmax,ss, Day 28, Cohort 2: 1500 mg QD MG005 plus 200 mg QD sorafenib, mean ± SD): 3730 ± 1530 ng/mL
Structure (SMILES): CNC(=O)c1cc(Oc2ccc(NC(=O)Nc3ccc(Cl)c(C(F)(F)F)c3)cc2)ccn1 [sorafenib, reference compound]

Structure (SMILES): O=C1Nc2ccc(I)cc2/C1=C/c1cc(Br)c(O)c(Br)c1 [GW5074]
AUC0→τ,ss [1, 7]: 5639.9 ± 2675.9 ng·h/mL | Cmax,ss [1, 7]: 685.6 ± 335.4 ng/mL | Tmax,ss ([1]; Day 28, Cohort 1: 750 mg QD MG005 plus 200 mg QD sorafenib): 6.0 (5.0–6.0) Hr | AUC0→τ,ss [1, 8]: 5553.7 ± 950.2 ng·h/mL | Cmax,ss [1, 8]: 786.0 ± 180.0 ng/mL | Tmax,ss [1, 6]: 4.0 (2.1–4.1) Hr | AUC0→τ,ss [1, 9]: 6249.6 ± 2619.6 ng·h/mL | Cmax,ss [1, 9]: 620.0 ± 382.6 ng/mL | Tmax,ss ([1]; Day 28, Cohort 3: 750 mg BID MG005 plus 200 mg QD sorafenib): 14.0 (0.0–23.9) Hr | bioavailability ([1]; patients, oral): low bioavailability | absorption ([1]; patients, 750 mg QD to 1500 mg QD gave no significant increase in bioavailability): poor absorption | half-life ([1]; patients, compared to sorafenib): significantly shorter half-life when compared to sorafenib | solubility [2]: not satisfactory | solubility ([2]; listed as MG005): poor solubility | mutagenicity and genotoxicity [3]: neither mutagenic nor genotoxic | findings of repeated toxicity studies ([4]; rat, in vivo): did not cause major abnormality except emesis and watery stool | no-observed-adverse-effect-level (NOAEL) ([4]; repeated dosing): highest dose levels tested | findings of repeated toxicity studies ([5]; dog, in vivo): did not cause major abnormality except emesis and watery stool | no-observed-adverse-effect-level (NOAEL) ([5]; repeated dosing): highest dose levels tested
